Assay results reported in patent US4990520A, “2-,4- or 5-substituted thiazole derivatives” (American Cyanamid Company, priority 1990, dated 1991).
Where a name gives a salt, the structure may show the parent alone.

How the values were obtained:
[1] = target: muscarinic cholinergic receptor; experiment: [3H] Quinuclinyl Benzilate (3H-QNB) Binding Assay; parameters: species or system rat; details: pH 7.4
[2] = target: high affinity agonist conformation of the muscarinic cholinergic receptor; experiment: [3H]-Cis-methyldioxolane (3H-CD) Binding Assay (High Affinity); details: rat cerebral cortex, 1.0 nM 3H-CD, 25° C., 120 minutes, pH 7.4
presynaptic cholinergic = details: cited from earlier work
postsynaptic cholinergic = details: cited from earlier work
SDAT patients = details: versus anticholinesterase inhibitor physostigmine; cited from earlier work
[3] = rat cerebral cortex, 0.25 nM 3H-QNB, 25° C., 120 minutes
[4] = rat cerebral cortex, 0.25 nM 3H-QNB, 25° C., 120 minutes, hydrochloride

In the case of “1-[3-(5-Thiazolyl)-2-propenyl]piperidine”, the IC50 [1, 3] is reported as 164 µM and the IC50 [2] is reported as 12.6 µM.
Molecule Cl/C(=C/c1nccs1)CN1CCCCC1 [1-[2-Chloro-3-(2-thiazolyl)-2-propenyl]piperidine,(E)] has an IC50 [1, 3] of 117 µM and an IC50 [2] of 6.59 µM.
Molecule C(#Cc1nccs1)CN1CCCCC1 [1-[3-(2-Thiazolyl)-2-propynyl]piperidine] has an IC50 [1, 3] of 182 µM and an IC50 [2] of 10.2 µM.
In the case of C(#Cc1cscn1)CN1CCCCC1 [1-[3-(4-Thiazolyl)-2-propynyl]piperidine, hydrochloride], the IC50 [1, 4] is reported as 114 µM and the IC50 ([2]; hydrochloride) is reported as 14 µM.
C(#Cc1cscn1)CN1CCCCC1 [1-[3-(4-Thiazolyl)-2-propynyl]piperidine] showed an IC50 [1, 3] of 124 µM and an IC50 [2] of 28.1 µM.
Work on C(#Cc1cncs1)CN1CCCCC1 [1-[3-(5-Thiazolyl)-2-propynyl]piperidine, hydrochloride] yielded an IC50 [1, 3] of 119 µM and an IC50 [2] of 0.658 µM.
Molecule CN(C)C/C(Cl)=C\c1nccs1 [2-Chloro-N,N-dimethyl-3-(2-thiazolyl)-2-propen-1-amine,(E)] has an IC50 [1, 3] of 222 µM and an IC50 [2] of 1.07 µM.
Work on Br/C(=C/c1nccs1)CN1CCCC1 [2-[2-Bromo-3-(1-pyrrolidinyl)-1-propenyl]thiazole,(E)] yielded an IC50 [1, 3] of 90 µM.
Work on Cl/C(=C/c1nccs1)CN1CCCC1 [2-[2-Chloro-3-(1-pyrrolidinyl)-1-propenyl]thiazole,(E)] yielded an IC50 [1, 3] of 186 µM and an IC50 [2] of 2.23 µM.
Work on C(#Cc1nccs1)CN1CCCC1 [2-[3-(1-Pyrrolidinyl)-1-propynyl]thiazole] yielded an IC50 [1, 3] of 44 µM and an IC50 [2] of 1.43 µM.
C(#Cc1cscn1)CN1CCCC1 [4-[3-(1-Pyrrolidinyl)-1-propynyl]thiazole] gave an IC50 [1, 3] of 71 µM and an IC50 [2] of 3.95 µM.
Work on C(#Cc1cncs1)CN1CCCC1 [5-[3-(1-Pyrrolidinyl)-1-propynyl] thiazole] [5-[3-(1-Pyrrolidinyl)-1-propynyl]thiazole] yielded an IC50 [1, 3] of 115 µM and an IC50 [2] of 4.7 µM.
For C(#Cc1cncs1)CN1CCCC1 [5-[3-(1-Pyrrolidinyl)-1-propynyl]thiazole], the IC50 [1, 3] was 73 µM and the IC50 [2] was 0.245 µM.
CN(C)CC#Cc1cscn1 [--N, --N-Dimethyl-3-(4-thiazolyl)-2-propyn-1-amine] [N,N-Dimethyl-3-(4-thiazolyl)-2-propyn-1-amine] showed an IC50 [1, 3] of 504 µM and an IC50 [2] of 12.9 µM.
CN(C)CC#Cc1cscn1 [--N, --N-Dimethyl-3-(4-thiazoyl)-2-propyn-1-amine] [N,N-Dimethyl-3-(4-thiazoyl)-2-propyn-1-amine] gave an IC50 [1, 3] of 381 µM and an IC50 [2] of 19 µM.
In the case of CC(=O)N(C)C(C)C#CCN1CCCC1 (stereo not shown) [BM-5, N-methyl-N-(1-methyl-4-pyrrolidino-2-butynyl) acetamide], the presynaptic cholinergic activity (presynaptic cholinergic) is given as “presynaptic cholinergic antagonist” and the postsynaptic cholinergic activity (postsynaptic cholinergic) is given as “postsynaptic partial cholinergic agonist”.
For C[N+](C)(C)CC#Cc1nccs1 [N,N,N-Trimethyl-3-(2-thiazolyl)-2-propyn-1-aminium iodide], the IC50 [1] was 123 µM and the IC50 [2] was 0.673 µM.
Molecule C[N+](C)(C)CC#Cc1cscn1 [N,N,N-Trimethyl-3-(4-thiazolyl)-2-propyn-1-aminium, iodide] has an IC50 [1] of 119 µM and an IC50 [2] of 1.46 µM.
C[N+](C)(C)CC#Cc1cncs1 [N,N,N-Trimethyl-3-(5-thiazolyl)-2-propyn-1-aminium iodide] gave an IC50 [1, 3] of 131 µM and an IC50 [2] of 0.273 µM.
CN(C)CC#Cc1nccs1 [N,N-Dimethyl-3-(2-thiazolyl)-2-propyn-1-amine] gave an IC50 [1, 3] of 1310 µM and an IC50 [2] of 9.98 µM.
Work on CN(C)CC#Cc1cncs1 [N,N-Dimethyl-3-(5-thiazolyl)-2-propyn-1-amine, hydrochloride] yielded an IC50 [1, 4] of 482 µM.
For CN(C)CC#Cc1cncs1 [N,N-Dimethyl-3-(5-thiazolyl)-2-propyn-1-amine], the IC50 [1, 3] was 765 µM and the IC50 [2] was 3.38 µM.
For COC(=O)C1=CCCN(C)C1 [arecoline], the “improvement when compared to physostigmine” value (SDAT patients) is listed as “more-consistent improvement”.
